Reference: ChEMBL document CHEMBL3832545, “DailyMed|setid=29481887-34eb-460a-bd7f-b8755473065a | EXELON - rivastigmine patch, extended release|Physicians Total Care, Inc”

Key:
Type in all cases: ADME, organism-based
Homo sapiens [1] = assay: Evaluation of the pharmacokinetic parameters for Rivastigmine following multiple oral administration of 6 mg Rivastigmine tablets.; conditions: in vivo, dosed compound id 5, dosed compound name RIVASTIGMINE, regimen Twice daily, tissue Plasma
[2] = (§1) Evaluation of the pharmacokinetic parameters for Rivastigmine 0.5 to 1 hour after administration of 9.5 mg/24 hours Rivastigmine transdermal system (Exelon patch).; conditions: human, in vivo, topical or ocular, dosed compound id 5, dosed compound name RIVASTIGMINE, regimen Single dose, sampling time1 0.5-1 hr, study dosing duration 24 hr, tissue Plasma
Homo sapiens [3] = assay: as §1; conditions: in vivo, topical_or_ocular, dosed compound id 5, dosed compound name RIVASTIGMINE, regimen Single dose, sampling time1 0.5-1 hr, study dosing duration 24 hr

With CCN(C)C(=O)Oc1cccc([C@H](C)N(C)C)c1 [RIVASTIGMINE] the “Ratio AUC(inf)” value (Homo sapiens [1]) was 3.5, the CL renal ([2]; 9.5 mg/24 hours) was 35 to 46.7 mL/min and the fraction unbound ([2]; at 9.5 mg, read-out: Protein binding (converted)) was 0.6. It also gave a Tmax (Homo sapiens [3]; tissue Cerebrospinal Fluid (CSF)) of 1.4 to 2.6 h, a Tmax (Homo sapiens [3]; tissue Plasma) of 8 h and a Vd (Homo sapiens [3]; tissue Plasma) of 1.8 to 2.7 L/kg.
